Measured values published in ChEMBL document CHEMBL4177570, “Pyrazole C-region analogues of 2-(3-fluoro-4-methylsulfonylaminophenyl)propanamides as potent TRPV1 antagonists” (Bioorg Med Chem Lett, 2017).

Target: T1, Transient receptor potential cation channel subfamily V member 1 (Homo sapiens, UniProt Q8NER1)
Assay: Antagonist activity at human TRPV1 expressed in CHO cells assessed as inhibition of capsaicin-induced intracellular calcium level preincubated for 6 mins followed by capsaicin addition by Fluo-4 dye based FLIPR assay
Format: cell-based
Conditions: cho; call rule not given here

T1 sequence (Q8NER1 whole entry): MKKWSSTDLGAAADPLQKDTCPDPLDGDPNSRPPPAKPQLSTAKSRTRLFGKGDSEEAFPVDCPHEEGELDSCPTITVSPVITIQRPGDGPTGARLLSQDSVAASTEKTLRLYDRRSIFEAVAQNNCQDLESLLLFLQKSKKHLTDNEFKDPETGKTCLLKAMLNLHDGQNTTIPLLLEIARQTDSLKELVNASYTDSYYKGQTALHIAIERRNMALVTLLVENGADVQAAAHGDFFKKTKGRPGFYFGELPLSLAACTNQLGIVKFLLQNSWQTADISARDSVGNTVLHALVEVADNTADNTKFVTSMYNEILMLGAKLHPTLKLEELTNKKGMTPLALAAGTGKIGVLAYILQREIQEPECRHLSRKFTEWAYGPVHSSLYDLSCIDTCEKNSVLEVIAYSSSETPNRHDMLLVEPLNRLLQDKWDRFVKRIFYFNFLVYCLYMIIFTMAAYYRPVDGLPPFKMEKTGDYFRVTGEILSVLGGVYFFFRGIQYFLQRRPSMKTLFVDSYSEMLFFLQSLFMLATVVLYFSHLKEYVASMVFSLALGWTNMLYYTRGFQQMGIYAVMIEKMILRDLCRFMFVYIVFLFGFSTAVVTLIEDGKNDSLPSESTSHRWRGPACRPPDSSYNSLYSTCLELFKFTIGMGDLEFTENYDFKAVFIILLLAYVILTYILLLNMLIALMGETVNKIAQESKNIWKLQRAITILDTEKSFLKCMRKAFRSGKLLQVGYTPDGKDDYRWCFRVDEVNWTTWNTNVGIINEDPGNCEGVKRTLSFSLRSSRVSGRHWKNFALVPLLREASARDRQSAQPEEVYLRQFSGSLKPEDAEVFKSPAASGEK

| SMILES | Ki |
| --- | --- |
| CC(C(=O)NCc1cc(C(C)(C)C)nn1C)c1ccc(NS(C)(=O)=O)c(F)c1 (stereo not drawn) | Not Active |
| CC(C)(C)c1cc(CNC(=O)C(c2ccc(NS(C)(=O)=O)c(F)c2)C2CCCCC2)n(-c2cccc(Cl)c2)n1 (stereo not drawn) | Not Active |
| CC(C(=O)NCc1cc(C(C)(C)C)n[nH]1)c1ccc(NS(C)(=O)=O)c(F)c1 (stereo not drawn) | Not Active |
| COc1ccc(-n2nc(C(C)(C)C)cc2CNC(=O)C(C)c2ccc(NS(C)(=O)=O)c(F)c2)cc1 (stereo not drawn) | Not Active |
| Cc1ccc(C(C(=O)NCc2cc(C(C)(C)C)nn2-c2cccc(Cl)c2)c2ccc(NS(C)(=O)=O)c(F)c2)cc1 (stereo not drawn) | Not Active |
| CC(C)(C)c1cc(CNC(=O)C(c2cccc(F)c2)c2ccc(NS(C)(=O)=O)c(F)c2)n(-c2cccc(Cl)c2)n1 (stereo not drawn) | Not Active |

Same assay, conditions: read-out: Ki

| SMILES | Ki [nM] |
| --- | --- |
| CC(C(=O)NCc1cc(C(C)(C)C)nn1-c1ccccc1)c1ccc(NS(C)(=O)=O)c(F)c1 (stereo not drawn) | 8 |
| CC(C(=O)NCc1cc(C(F)(F)F)nn1-c1ccc(Cl)cc1)c1ccc(NS(C)(=O)=O)c(F)c1 (stereo not drawn) | 0.4 |
| CCCCCn1nc(C(C)(C)C)cc1CNC(=O)C(C)c1ccc(NS(C)(=O)=O)c(F)c1 (stereo not drawn) | 50.2 |
| CCC/C=C/n1nc(C(C)(C)C)cc1CNC(=O)C(C)c1ccc(NS(C)(=O)=O)c(F)c1 (stereo not drawn) | 5.1 |
| CCCCCCn1nc(C(C)(C)C)cc1CNC(=O)C(C)c1ccc(NS(C)(=O)=O)c(F)c1 (stereo not drawn) | 27.7 |
| Cc1ccc(/C=C/c2ccc(-n3nc(C(C)(C)C)cc3CNC(=O)C(C)c3ccc(NS(C)(=O)=O)c(F)c3)cc2)cc1 (stereo not drawn) | 819 |
| C[C@H](C(=O)NCc1cc(C(C)(C)C)nn1-c1ccc(F)c(Cl)c1)c1ccc(NS(C)(=O)=O)c(F)c1 | 0.1 |

Target: T1, Transient receptor potential cation channel subfamily V member 1
Assay: Antagonist activity at human TRPV1 expressed in CHO cells assessed as inhibition of NADA-induced intracellular calcium level preincubated with cells followed by NADA addition by Fluo-4 dye based FLIPR assay
Conditions: not given

| SMILES | Ki [nM] |
| --- | --- |
| C[C@H](C(=O)NCc1cc(C(C)(C)C)nn1-c1cccc(Cl)c1)c1ccc(NS(C)(=O)=O)c(F)c1 | 0.04 |

Target: T1, Transient receptor potential cation channel subfamily V member 1
Assay: Antagonist activity at pH 6 to 6.3 activated human TRPV1 expressed in CHO cells assessed as inhibition of intracellular calcium level preincubated with cells followed by receptor activation by Fluo-4 dye based FLIPR assay
Format: cell-based
Conditions: not given

| SMILES | IC50 |
| --- | --- |
| C[C@H](C(=O)NCc1cc(C(C)(C)C)nn1-c1cccc(Cl)c1)c1ccc(NS(C)(=O)=O)c(F)c1 | Not Active |

Target: T1, Transient receptor potential cation channel subfamily V member 1
Assay: Antagonist activity at elevated temperature activated human TRPV1 expressed in CHO cells assessed as inhibition of intracellular calcium level preincubated for 5 mins followed by receptor activation by increasing temperature to 45 degC by Fluo-4 dye based FLIPR assay
Format: cell-based
Conditions: not given

| SMILES | IC50 |
| --- | --- |
| C[C@H](C(=O)NCc1cc(C(C)(C)C)nn1-c1cccc(Cl)c1)c1ccc(NS(C)(=O)=O)c(F)c1 | Not Active |

Tested on: Mus musculus
Assay: Inhibition of capsaicin-induced hypothermia in NMRI mouse at 3 mg/kg, po pretreated for 15 mins followed by capsaicin treatment measured up to 120 mins relative to control
Format: functional
Conditions: not given

| SMILES | inhibition in vivo at 3 mg/kg [%] |
| --- | --- |
| C[C@H](C(=O)NCc1cc(C(C)(C)C)nn1-c1cccc(Cl)c1)c1ccc(NS(C)(=O)=O)c(F)c1 | 95 |
| C[C@H](C(=O)NCc1cc(C(F)(F)F)nn1-c1cccc(Cl)c1)c1ccc(NS(C)(=O)=O)c(F)c1 | 85 |
